{"source": "patent US12215106B2", "about": "“Pharmaceutical compounds and therapeutic methods” (RUTGERS, THE STATE UNIVERSITY OF NEW JERSEY, priority 2018, dated 2025)", "experiment": "Plasma pharmacokinetics and brain distribution after single IV, IP and oral administration", "format": "in vivo", "protocol": "(§1) The objective of this study was to investigate the plasma pharmacokinetics and brain distribution of Compound (14 in male C57BL/6 mice following a single intravenous, intraperitoneal and oral administration. A group of sixty-three male mice were divided into three groups (Group 1: 2 mg/kg/IV; Group 2: 10 mg/kg/IP and Group 3: 10 mg/kg/PO) with each group comprising of twenty-one mice.\nAnimals in Group 1 were administered intravenously with Compound 15 solution formulation in 5% NMP, 5% Solutol HS-15, 30% PEG-400 and 60% Captisol (20% w/v) at 2 mg/kg dose. […] Considering mortality intravenous dose was reduced to 2 mg/kg.\nAnimals in Group 2 and 3 were administered with Compound 15 solution formulation in 5% NMP, 5% Solutol HS-15, 30% PEG-400 and 60% Captisol (20% w/v) at a dose of 10 mg/kg by intraperitoneal and oral route respectively.\n(§2) Blood samples (approximately 60 μL) were collected under light isoflurane anesthesia from retro orbital plexus from a set of three mice at 0.08, 0.35, 1, 3, 6, 12 and 24 hr. Plasma samples were separated by centrifugation of whole blood and stored below −70±10° C. until bioanalysis. Immediately after collection of blood, brain samples were collected from set of three mice at each time point. Brain samples were homogenized using ice-cold phosphate buffer saline (pH-7.4) in a ratio of 2 (buffer):1(brain); and homogenates were stored below −70±10° C. until analysis. Total homogenate volume was three times the brain weight. All samples were processed for analysis by protein precipitation using acetonitrile and analyzed with fit-for-purpose LC/MS/MS method (LLOQ2.00 ng/mL for plasma and 3.00 ng/g for brain). Pharmacokinetic parameters were calculated using the non-compartmental analysis tool of Phoenix WinNonlin® (Version 7.0). Pharmacokinetic parameters of Compound 15 are summarized below.\nas §1, with “Compound 16” for “Compound (14”, “1: 10” for “1: 2”\nAnimals in Group 1 were administered intravenously with Compound 16 solution formulation in 5% NMP, 5% Solutol HS-15 and 90% normal saline at 10 mg/kg dose.\nAnimals in Group 2 and 3 were administered with Compound 16 solution formulation in 5% NMP, 5% Solutol HS-15 and 90% normal saline at a dose of 10 mg/kg by intraperitoneal and oral route respectively.\nas §2, with “(LLOQ—1.00” for “(LLOQ2.00”, “16” for “15”\nas §1, with “17” for “(14”, “mice. […]” for “mice.”", "key": {"[1]": {"settings": "male, C57BL/6, mouse, in vivo, iv, 2 mg/kg, Mean brain conc."}, "[2]": {"settings": "male, C57BL/6, mouse, in vivo, iv, 2 mg/kg, Mean plasma conc."}, "[3]": {"settings": "male, C57BL/6, mouse, in vivo, iv, 2 mg/kg, Plasma concentration, individual animal"}, "[4]": {"settings": "male, C57BL/6, mouse, in vivo, po, 10 mg/kg"}, "[5]": {"settings": "male, C57BL/6, mouse, in vivo, po, 10 mg/kg, 12 h"}, "[6]": {"settings": "male, C57BL/6, mouse, in vivo, po, 10 mg/kg, 24 h"}, "[7]": {"settings": "male, C57BL/6, mouse, in vivo, po, 10 mg/kg, Brain concentration, individual animal"}, "[8]": {"settings": "male, C57BL/6, mouse, in vivo, po, 10 mg/kg, Mean brain conc."}, "[9]": {"settings": "male, C57BL/6, mouse, in vivo, po, 10 mg/kg, Mean plasma conc."}, "[10]": {"settings": "male, C57BL/6, mouse, in vivo, po, 10 mg/kg, Plasma concentration, individual animal"}, "[11]": {"settings": "male, C57BL/6, mouse, plasma, IP 10 mg/kg"}, "[12]": {"settings": "male, C57BL/6, mouse, plasma, IV 2 mg/kg"}, "[13]": {"settings": "male, C57BL/6, mouse, plasma, PO 10 mg/kg"}}, "note": "Where a name gives a salt, the structure may show the parent alone. Read-outs that look alike come from different tables or passages of the source."}
{"smiles": "[2H]C1([2H])Oc2ccc(Nc3nc(-c4c(C)nc5ccccn45)cs3)cc2O1", "note": "[Compound 17, N-(benzo[d][1,3]dioxol-5-yl-2,2-d2)-4-(2-methylimidazo[1,2-c]pyridin-3-yl)thiazol-2-amine hydrochloride]", "values": [{"measurement": "concentration at 6 h", "setting": "[1]", "result": 0, "unit": "ng/g"}, {"measurement": "concentration at 12 h", "setting": "[1]", "result": 0, "unit": "ng/g"}, {"measurement": "concentration at 24 h", "setting": "[1]", "result": 0, "unit": "ng/g"}, {"measurement": "concentration at 0.08 h", "setting": "[2]", "result": 256, "unit": "ng/mL"}, {"measurement": "concentration at 0.35 h", "setting": "[2]", "result": 44.8, "unit": "ng/mL"}, {"measurement": "concentration at 1 h", "setting": "[2]", "result": 9.57, "unit": "ng/mL"}, {"measurement": "concentration at 3 h", "setting": "[2]", "result": 0, "unit": "ng/mL"}, {"measurement": "concentration at 6 h", "setting": "[2]", "result": 0, "unit": "ng/mL"}, {"measurement": "concentration at 12 h", "setting": "[2]", "result": 0, "unit": "ng/mL"}, {"measurement": "concentration at 24 h", "setting": "[2]", "result": 0, "unit": "ng/mL"}, {"measurement": "concentration at 0.08 h", "setting": "[3]", "result": 260, "unit": "ng/mL"}, {"measurement": "concentration at 0.35 h", "setting": "[3]", "result": 41.5, "unit": "ng/mL"}, {"measurement": "concentration at 3 h", "setting": "[3]", "result": 0, "unit": "ng/mL"}, {"measurement": "concentration at 6 h", "setting": "[3]", "result": 0, "unit": "ng/mL"}, {"measurement": "concentration at 12 h", "setting": "[3]", "result": 0, "unit": "ng/mL"}, {"measurement": "concentration at 24 h", "setting": "[3]", "result": 0, "unit": "ng/mL"}, {"measurement": "Brain concentrations quantifiable up to", "setting": "[4]", "result": "up to 6 hr"}, {"measurement": "Plasma concentrations quantifiable up to", "setting": "[4]", "result": "up to 6 hr"}, {"measurement": "Brain concentration, individual animal", "setting": "[5]", "result": 0.00, "unit": "ng/g"}, {"measurement": "Plasma concentration, individual animal", "setting": "[5]", "result": 0.00, "unit": "ng/mL"}, {"measurement": "Brain concentration, individual animal", "setting": "[6]", "result": 0.00, "unit": "ng/g"}, {"measurement": "Plasma concentration, individual animal", "setting": "[6]", "result": 0.00, "unit": "ng/mL"}, {"measurement": "concentration at 0.35 h", "setting": "[7]", "result": 43.6, "unit": "ng/g"}, {"measurement": "concentration at 3 h", "setting": "[7]", "result": 28.1, "unit": "ng/g"}, {"measurement": "concentration at 12 h", "setting": "[7]", "result": 0, "unit": "ng/g"}, {"measurement": "concentration at 24 h", "setting": "[7]", "result": 0, "unit": "ng/g"}, {"measurement": "concentration at 0.35 h", "setting": "[8]", "result": 53, "unit": "ng/g"}, {"measurement": "concentration at 1 h", "setting": "[8]", "result": 51.9, "unit": "ng/g"}, {"measurement": "concentration at 3 h", "setting": "[8]", "result": 20.5, "unit": "ng/g"}, {"measurement": "concentration at 6 h", "setting": "[8]", "result": 10.5, "unit": "ng/g"}, {"measurement": "concentration at 12 h", "setting": "[8]", "result": 0, "unit": "ng/g"}, {"measurement": "concentration at 24 h", "setting": "[8]", "result": 0, "unit": "ng/g"}, {"measurement": "concentration at 0.35 h", "setting": "[9]", "result": 163, "unit": "ng/mL"}, {"measurement": "concentration at 1 h", "setting": "[9]", "result": 109, "unit": "ng/mL"}, {"measurement": "concentration at 3 h", "setting": "[9]", "result": 63.5, "unit": "ng/mL"}, {"measurement": "concentration at 6 h", "setting": "[9]", "result": 45.5, "unit": "ng/mL"}, {"measurement": "concentration at 12 h", "setting": "[9]", "result": 0, "unit": "ng/mL"}, {"measurement": "concentration at 24 h", "setting": "[9]", "result": 0, "unit": "ng/mL"}, {"measurement": "concentration at 3 h", "setting": "[10]", "result": 62.6, "unit": "ng/mL"}, {"measurement": "concentration at 12 h", "setting": "[10]", "result": 0, "unit": "ng/mL"}, {"measurement": "concentration at 24 h", "setting": "[10]", "result": 0, "unit": "ng/mL"}, {"measurement": "concentration at 0.08 h", "setting": "male, C57BL/6, mouse, in vivo, IP 10 mg/kg, 0.08 hr, read-out: Mean brain conc.", "result": 288, "unit": "ng/g"}, {"measurement": "concentration at 0.08 h", "setting": "male, C57BL/6, mouse, in vivo, IP 10 mg/kg, 0.08 hr, read-out: Mean plasma conc.", "result": 469, "unit": "ng/mL"}, {"measurement": "Kp at 0.08 h", "setting": "male, C57BL/6, mouse, in vivo, IV 2 mg/kg, 0.08 hr, read-out: Brain-to-plasma ratio", "result": 0.18}, {"measurement": "Kp at 0.35 h", "setting": "male, C57BL/6, mouse, in vivo, IV 2 mg/kg, 0.35 hr, read-out: Brain-to-plasma ratio", "result": 4.03}, {"measurement": "Kp at 1 h", "setting": "male, C57BL/6, mouse, in vivo, IV 2 mg/kg, 1 hr, read-out: Brain-to-plasma ratio", "result": 1.45}, {"measurement": "concentration at 0.08 h", "setting": "male, C57BL/6, mouse, in vivo, PO 10 mg/kg, 0.08 hr, read-out: Mean brain conc.", "result": 67.3, "unit": "ng/g"}, {"measurement": "concentration at 0.08 h", "setting": "male, C57BL/6, mouse, in vivo, PO 10 mg/kg, 0.08 hr, read-out: Mean plasma conc.", "result": 207, "unit": "ng/mL"}, {"measurement": "Cmax", "setting": "male, C57BL/6, mouse, in vivo, brain, IP 10 mg/kg", "result": 288, "unit": "ng/g"}, {"measurement": "Cmax", "setting": "male, C57BL/6, mouse, in vivo, brain, PO 10 mg/kg", "result": 67.3, "unit": "ng/g"}, {"measurement": "Cmax", "setting": "male, C57BL/6, mouse, in vivo, plasma, IP 10 mg/kg", "result": 469, "unit": "ng/mL"}, {"measurement": "Cmax", "setting": "male, C57BL/6, mouse, in vivo, plasma, PO 10 mg/kg", "result": 207, "unit": "ng/mL"}, {"measurement": "bioavailability", "setting": "male, C57BL/6, mouse, plasma, po, 10 mg/kg, PO 10 mg/kg, AUClast considered, read-out: Oral bioavailability, % F", "result": "> 100", "unit": "%"}, {"measurement": "bioavailability", "setting": "male, C57BL/6, mouse, plasma, po, 10 mg/kg, summary data, read-out: Oral bioavailability", "result": "> 100", "unit": "%"}, {"measurement": "Tmax", "setting": "male, C57BL/6, mouse, brain, IP 10 mg/kg", "result": 4.8, "unit": "min"}, {"measurement": "Tmax", "setting": "male, C57BL/6, mouse, brain, PO 10 mg/kg", "result": 4.8, "unit": "min"}, {"measurement": "AUC(0-inf)", "setting": "[11]", "result": 786, "unit": "ng·h/mL"}, {"measurement": "AUC(0-t)", "setting": "[11]", "result": 675, "unit": "ng·h/mL"}, {"measurement": "Tmax", "setting": "[11]", "result": 4.8, "unit": "min"}, {"measurement": "AUC(0-inf)", "setting": "[12]", "result": 88.2, "unit": "ng·h/mL"}, {"measurement": "AUC(0-t)", "setting": "[12]", "result": 85.7, "unit": "ng·h/mL"}, {"measurement": "clearance", "setting": "male, C57BL/6, mouse, plasma, IV 2 mg/kg, read-out: CL, plasma clearance", "result": 378, "unit": "mL/min/kg"}, {"measurement": "half-life", "setting": "male, C57BL/6, mouse, plasma, IV 2 mg/kg, read-out: T1/2, terminal elimination half-life (converted)", "result": 12.6, "unit": "min"}, {"measurement": "Vd", "setting": "male, C57BL/6, mouse, plasma, IV 2 mg/kg, read-out: Vss", "result": 4.4, "unit": "L/kg"}, {"measurement": "AUC(0-t)", "setting": "[13]", "result": 482, "unit": "ng·h/mL"}, {"measurement": "Tmax", "setting": "[13]", "result": 4.8, "unit": "min"}, {"measurement": "mortality immediately after dose administration", "setting": "mouse, in vivo, iv, 10 mg/kg", "result": "mortality was observed in six animals"}, {"measurement": "Oral bioavailability", "setting": "summary data, hydrochloride", "result": 112, "unit": "%"}]}
